In PMC4626104, “Inhibition on Proteasome β1 Subunit Might Contribute to the Anti-Cancer Effects of Fangchinoline in Human Prostate Cancer Cells” (PLoS ONE, 2015):

Tests used:
[1] = biological target: T1, recombinant human proteasome β1 subunit (Homo sapiens, UniProt P28072); assay: Enzyme activity of recombinant proteasome catalytic β1 subunit (Z-LLE-AMC); type: biochemical; settings: 50 μM Z-LLE-AMC, 2 h incubation
T1 construct: His-Tag; made in house; host or cells: Escherichia coli
T1 sequence (P28072 1-239): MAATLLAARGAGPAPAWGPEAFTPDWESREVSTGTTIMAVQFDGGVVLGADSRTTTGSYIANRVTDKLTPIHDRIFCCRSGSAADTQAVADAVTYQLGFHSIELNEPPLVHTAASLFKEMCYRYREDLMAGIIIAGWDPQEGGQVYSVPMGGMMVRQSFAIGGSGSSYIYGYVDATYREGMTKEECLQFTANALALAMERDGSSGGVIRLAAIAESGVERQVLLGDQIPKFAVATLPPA
Description: Briefly, catalytic activity of the recombinant human proteasome β1 subunit was assayed by adding recombinant β1 subunit protein (30 μg) to 100 μL of proteasome activity assay buffer (10 mM Tris-HCL, pH 7.8, 5 mM adenosine triphosphate, 0.5 mM dithiothreitol and 5 mM MgCL2•6H2O) containing 50 μM Z-LLE-AMC in the presence of fangchinoline or tetrandrine at different concentrations or not. The hydrolase activity of the proteasome catalytic β1 subunit could release the fluorogenic AMC component from substrate Z-LLE-AMC and the AMC release was measured after 2 h incubation using a Microplate Reader Bio-Rad 550 with excitation and emission wavelengths of 360 and 465 nm, respectively.

[2] = test system: PC-3 tumor xenografts; assay: PC-3 tumor xenograft experiments (tumor volume, TUNEL); type: in vivo, nude mice
Description: Male nude immunodeficient mice Balb/c-nu-nu, aged 4 weeks, were purchased from Shanghai Experimental Animal Center. All procedures involving animals were approved by the Institutional Animal Care and Use Committee of Shanghai Institute of Materia Medica, Chinese Academy of Sciences. On day 0, PC-3 cells (8×10^6 cells) suspended in 0.2 mL of serum-free RPMI 1640 were inoculated s.c. in the right flank of each mouse (six mice per group). 14 days after inoculation, mice were randomly divided into 3 groups and started injection with either vehicle control or fangchinoline at 25 mg/kg (ip., QD) or 50 mg/kg (ip., QD). Tumor sizes were measured every 4 days using calipers and their volumes were calculated using a standard formula: width^2×length/2. The relative tumor volume (RTV) was defined as the ratio of the tumor volume at a indicated time and the tumor volume at the start of drug treatment. Body weight was measured daily. On day 30 after inoculation, mice were sacrificed by CO2 inhalation and tumor xenografts were dissected. To visualize apoptosis in tumor xenografts, TUNEL labeling was conducted to detect apoptotic nuclei using In Situ Death Detection Kit (Roche Molecular Biochemicals). Briefly, tumor xenografts were fixed with 10% formalin solution at room temperature for 24 h and then embedded by paraffin. Specimens were heated for 1h by Water Bath-Slide Drier (LEICA H1 1220, German), incubated with dimethylbenzene for two times (8 min each) and then incubated with 100%, 95%, 90% and 85% ethanol for two times (3 min each). Specimens were then incubated with 0.1M Citrate buffer (pH 6.0) for microwave irradiation. After washing with PBS for two times (3 min each), slices were incubated with reaction buffer (from the In Situ Death Detection Kit) in a humid atmosphere at 37°C for 1 h. Slices were then washed with PBS three times (3 min each) to remove unincorporated fluorescein–deoxyuridine triphosphate. Nuclei were counterstained with 4,6-diamidino-2-phenylindole (DAPI) 1 μg/mL for 3 min and then washed with PBS for three times (3 min each). Images were captured using a 20X objective (Olympus BX51, Japan) on an epifluorescence microscope. Furthermore, the proteasome activities of tumor xenografts were assayed. Briefly, tumor xenografts were homogenerized in proteasome activity assay buffer using the FastPrep System (MP FastPrep-24, U.S.A), then centrifugation at 4°C for 30 min. The supernatants were then used for assay of proteasome activities using method as described above for analysis of cellular proteasome activities.

[3] = test system: T2, cellular proteasome of PC-3 cells; assay: Cellular proteasome activities of PC-3 cells; type: cell-based, human
T2 construct: endogenous in cells; host or cells: PC-3 cells, whole cell extract
Description: Cells were treated with either solvent control (0.1% DMSO), fangchinoline at different concentrations, or 1 μM carfilzomib (positive control) for 24 h at 37 °C. The enzymatic activities of cellular proteasome in cell lysate were measured as reported in our previous paper. Briefly, cells were harvested, washed with PBS and then lysed in proteasome activity assay buffer for 30 min at 4°C. The homogenate was then centrifuged at 12000 × g for 30 min at 4°C. The supernatant was collected as whole cell extract and the protein content in the supernatant was measured with the Bradford reagent. Catalytic activities of cellular proteasome were assayed by adding whole cell extract (containing 30 μg protein) to 100 μL of proteasome activity assay buffer containing 50 μM fluorogenic peptide substrates such as Z-LLE-AMC for detecting C-L activity, Z-ARR-AMC for detecting T-L activity or Suc-LLVY-AMC for detecting CT-L activity, respectively. The release of fluorogenic AMC from the peptide substrates was then measured as described above.

[4] = 25mg/kg ip. QD, day 14 after inoculation (start of treatment)
[5] = 25mg/kg ip. QD, day 17 after inoculation
[6] = 25mg/kg ip. QD, day 21 after inoculation
[7] = 25mg/kg ip. QD, day 24 after inoculation
[8] = 25mg/kg ip. QD, day 27 after inoculation
[9] = 25mg/kg ip. QD, day 30 after inoculation
[10] = 50mg/kg ip. QD, day 14 after inoculation (start of treatment)
[11] = 50mg/kg ip. QD, day 17 after inoculation
[12] = 50mg/kg ip. QD, day 21 after inoculation
[13] = 50mg/kg ip. QD, day 24 after inoculation
[14] = 50mg/kg ip. QD, day 27 after inoculation
[15] = 50mg/kg ip. QD, day 30 after inoculation

**Q.** Which results are given for `COc1ccc2cc1Oc1ccc(cc1)C[C@H]1c3cc(c(OC)cc3CCN1C)Oc1c(O)c(OC)cc3c1[C@H](C2)N(C)CC3` [fangchinoline]?
**A.** Inhibition of enzyme activity of recombinant proteasome β1 subunit [1]: dose-dependently inhibited; Tumor volume (Maximum) [2, 4]: 519.59 mm^3; Tumor volume (Mean ± SEM) [2, 4]: 370.0±42.37 mm^3; Tumor volume (Maximum) [2, 5]: 512.11 mm^3; Tumor volume (Mean ± SEM) [2, 5]: 356.5±51.63 mm^3; Tumor volume (Maximum) [2, 6]: 812.68 mm^3; Tumor volume (Mean ± SEM) [2, 6]: 577.7±53.05 mm^3; Tumor volume (Maximum) [2, 7]: 1147.52 mm^3; Tumor volume (Mean ± SEM) [2, 7]: 955.0±78.87 mm^3; Tumor volume (Maximum) [2, 8]: 1439.56 mm^3; Tumor volume (Mean ± SEM) [2, 8]: 1248±50.73 mm^3; Tumor volume (Maximum) [2, 9]: 1655.05 mm^3; Tumor volume (Mean ± SEM) [2, 9]: 1413±61.89 mm^3; Tumor volume (Maximum) [2, 10]: 356.43 mm^3; Tumor volume (Mean ± SEM) [2, 10]: 348.4±3.470 mm^3; Tumor volume (Maximum) [2, 11]: 402.14 mm^3; Tumor volume (Mean ± SEM) [2, 11]: 321.3±21.46 mm^3; Tumor volume (Maximum) [2, 12]: 462.36 mm^3; Tumor volume (Mean ± SEM) [2, 12]: 374.8±37.58 mm^3; Tumor volume (Maximum) [2, 13]: 812.28 mm^3; Tumor volume (Mean ± SEM) [2, 13]: 593.8±593.8 mm^3; Tumor volume (Maximum) [2, 14]: 1008.40 mm^3; Tumor volume (Mean ± SEM) [2, 14]: 857.0±41.00 mm^3; Tumor volume (Maximum) [2, 15]: 1263.09 mm^3; Tumor volume (Mean ± SEM) [2, 15]: 1120±66.28 mm^3; Growth of PC-3 xenografts (relative tumor volume) ([2]; 25 and 50 mg/kg ip. QD): dose-dependently inhibit; Apoptosis in PC-3 xenografts (TUNEL labeling) ([2]; animals treated with fangchinoline): apoptosis was induced; Inhibition of enzyme activity of cellular proteasome β1 subunit ([3]; 10 μM, 24 h treatment): about 50%; Effect on chymotrypsin-like (CT-L) activity of cellular proteasome ([3]; PC-3 cells, 24 h): not significantly affected; Effect on trypsin-like (T-L) activity of cellular proteasome ([3]; PC-3 cells, 24 h): not significantly affected; Inhibition on C-L activity of cellular proteasome ([3]; PC-3 cells, 24 h, doses of 1 and 10 μM): significant
